Data: the supplement of paper PMC10883282

Legend:
Test in all cases: relative viability vs DMSO control (72 h) (fraction); higher = more viable cells
[1] = tested on: SW872
Procedure, shortened: (§1)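 Densities for seeding sarcoma cell lines into 384-well plates were set to give 80–90% confluence. After 24 h, 2.5 µl of serially diluted compound from source plates of 10 mM to 0.0002 mM went in, and plates stayed 72 h at 37 °C in 5% CO2 with 0.1% DMSO vehicle and a 5 µM positive control. Percent growth from ATPLite readings, averaged over up to triplicate wells, served as relative viability, rescaled so 1 means full and 0 means none.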

[2] = tested on: VA-ES-BJ
Procedure, shortened: as §1

[3] = tested on: SK-LMS-1
Procedure, shortened: as §1

[4] = tested on: SW1353
Procedure, shortened: as §1

[5] = tested on: HT1080
Procedure, shortened: as §1

[6] = tested on: G401
Procedure, shortened: as §1

[7] = tested on: SK-ES-1
Procedure, shortened: as §1

[8] = tested on: KHOS-NP
Procedure, shortened: as §1

[9] = tested on: MES-SA
Procedure, shortened: as §1

[10] = tested on: SW684
Procedure, shortened: as §1

[11] = tested on: RD-ES
Procedure, shortened: as §1

[12] = tested on: RD
Procedure, shortened: as §1

CC(C)Oc1ccc(-c2nn([C@@H](C)c3oc4ccc(F)cc4c(=O)c3-c3cccc(F)c3)c3ncnc(N)c23)cc1F [Umbralisib]
Conditions	relative viability
[1], 0.00017 µM	1.09
[1], 0.00051 µM	1.09
[1], 0.00152 µM	1.1
[1], 0.00457 µM	1.08
[1], 0.01372 µM	1.11
[1], 0.04115 µM	1.087
[1], 0.1235 µM	1.07
[1], 0.3704 µM	1.07
[1], 1.111 µM	1.09
[1], 3.333 µM	1.095
[1], 10 µM	1.04
[2], 0.00017 µM	1.07
[2], 0.00051 µM	1.07
[2], 0.00152 µM	1.11
[2], 0.00457 µM	1.08
[2], 0.01372 µM	1.08
[2], 0.04115 µM	1.05
[2], 0.1235 µM	1.07
[2], 0.3704 µM	1.05
[2], 1.111 µM	1.05
[2], 3.333 µM	1.05
[2], 10 µM	1.1
[3], 0.00017 µM	1.07
[3], 0.00051 µM	1.06
[3], 0.00152 µM	1.06
[3], 0.00457 µM	1.04
[3], 0.01372 µM	1.05
[3], 0.04115 µM	1.05
[3], 0.1235 µM	1.03
[3], 0.3704 µM	1.06
[3], 1.111 µM	1.02
[3], 3.333 µM	0.875
[3], 10 µM	0.752
[4], 0.00017 µM	1.03
[4], 0.00051 µM	1.03
[4], 0.00152 µM	1.032
[4], 0.00457 µM	1.06
[4], 0.01372 µM	1.03
[4], 0.04115 µM	1
[4], 0.1235 µM	1.01
[4], 0.3704 µM	0.959
[4], 1.111 µM	0.97
[4], 3.333 µM	0.946
[4], 10 µM	0.8866
[5], 0.00017 µM	1.07
[5], 0.00051 µM	1.09
[5], 0.00152 µM	1.07
[5], 0.00457 µM	1.09
[5], 0.01372 µM	1.06
[5], 0.04115 µM	1.069
[5], 0.1235 µM	1.08
[5], 0.3704 µM	1.07
[5], 1.111 µM	1.05
[5], 3.333 µM	1.05
[5], 10 µM	0.955
[6], 0.00017 µM	1.02
[6], 0.00051 µM	1.068
[6], 0.00152 µM	1.09
[6], 0.00457 µM	1.05
[6], 0.01372 µM	1.03
[6], 0.04115 µM	1.01
[6], 0.1235 µM	1.02
[6], 0.3704 µM	0.99
[6], 1.111 µM	0.988
[6], 3.333 µM	1.05
[6], 10 µM	1.1
[7], 0.00017 µM	1.07
[7], 0.00051 µM	1.07
[7], 0.00152 µM	1.05
[7], 0.00457 µM	1.07
[7], 0.01372 µM	1.06
[7], 0.04115 µM	1.09
[7], 0.1235 µM	1.04
[7], 0.3704 µM	1.04
[7], 1.111 µM	1.04
[7], 3.333 µM	1.08
[7], 10 µM	1.02
[8], 0.00017 µM	1.091
[8], 0.00051 µM	1.085
[8], 0.00152 µM	1.095
[8], 0.00457 µM	1.1
[8], 0.01372 µM	1.1
[8], 0.04115 µM	1.09
[8], 0.1235 µM	1.11
[8], 0.3704 µM	1.08
[8], 1.111 µM	1.1
[8], 3.333 µM	1.1
[8], 10 µM	1.077
[9], 0.00017 µM	0.946
[9], 0.00051 µM	0.928
[9], 0.00152 µM	0.94
[9], 0.00457 µM	0.981
[9], 0.01372 µM	0.957
[9], 0.04115 µM	0.9436
[9], 0.1235 µM	0.943
[9], 0.3704 µM	0.945
[9], 1.111 µM	0.937
[9], 3.333 µM	0.922
[9], 10 µM	0.747
[10], 0.00017 µM	1.13
[10], 0.00051 µM	1.17
[10], 0.00152 µM	1.16
[10], 0.00457 µM	1.21
[10], 0.01372 µM	1.2
[10], 0.04115 µM	1.19
[10], 0.1235 µM	1.16
[10], 0.3704 µM	1.06
[10], 1.111 µM	0.966
[10], 3.333 µM	0.9274
[10], 10 µM	0.882
[11], 0.00017 µM	1
[11], 0.00051 µM	1
[11], 0.00152 µM	1.01
[11], 0.00457 µM	1.001
[11], 0.01372 µM	0.979
[11], 0.04115 µM	1
[11], 0.1235 µM	1.02
[11], 0.3704 µM	1
[11], 1.111 µM	0.994
[11], 3.333 µM	1.01
[11], 10 µM	1.02
[12], 0.00017 µM	1.1
[12], 0.00051 µM	1.08
[12], 0.00152 µM	1.11
[12], 0.00457 µM	1.1
[12], 0.01372 µM	1.113
[12], 0.04115 µM	1.11
[12], 0.1235 µM	1.12
[12], 0.3704 µM	1.08
[12], 1.111 µM	1.14
[12], 3.333 µM	1.11
[12], 10 µM	1.11
